Measurements taken from US5466671A, “Apidaecin-type peptide antibiotics with improved activities and/or different antibacterial spectrum” (priority 1994, dated 1995).
Residues, ends and D or L forms follow the SMILES beside them. No end group written: not given here.

What was measured:
Enterobacter cloacae = assay: Inhibition zone assay (agar plate); format: cell-based; details: agar plate, 50 nanomoles/well, 3 mm wells
Y. enterocolitica = assay: Minimal inhibitory concentration (liquid culture); details: inoculum 5000 CFU/ml; a-b = highest concentration with growth - lowest without growth
Erwinia amylovora = assay: Inhibition zone assay (agar plate); format: cell-based; details: agar plate, 50 nanomoles/well, 3 mm wells
S. typhimurium = assay: Minimal inhibitory concentration (liquid culture); details: inoculum 8 × 10^6 CFU/ml; a-b = highest concentration with growth - lowest without growth
E. coli 11775 = assay: Minimal inhibitory concentration (liquid culture); details: a-b = highest concentration with growth - lowest without growth
Salmonella typhimurium = assay: Inhibition zone assay (agar plate); format: cell-based; details: agar plate, 50 nanomoles/well, 3 mm wells
M. morganii = assay: Minimal inhibitory concentration (liquid culture); details: inoculum 400 CFU/ml; a-b = highest concentration with growth - lowest without growth
Francisella tularensis = format: cell-based; details: agar plate, 50 nanomoles/well, 3 mm wells
A. calcoaceticus = assay: Minimal inhibitory concentration (liquid culture); details: inoculum 16 × 10^6 CFU/ml; a-b = highest concentration with growth - lowest without growth
Escherichia coli (K514) = format: cell-based; details: agar plate, 50 nanomoles/well, 3 mm wells
Yersinia enterocolitica = assay: Inhibition zone assay (agar plate); format: cell-based; details: 50 nanomoles/well, 3 mm wells
[1] = tested on: Agrobacterium tumefaciens; assay: Inhibition zone assay (agar plate); format: cell-based; details: agar plate, 50 nanomoles/well, 3 mm wells
Klebsiella pneumoniae = assay: Inhibition zone assay (agar plate); format: cell-based; details: agar plate, 50 nanomoles/well, 3 mm wells
E. coli Apid^R = assay: Minimal inhibitory concentration (liquid culture); format: cell-based; details: a-b = highest concentration with growth - lowest without growth
From the text: For details see `Experimental Procedures`.

E. coli 25922 = assay: Minimal inhibitory concentration (liquid culture); details: inoculum 1100 CFU/ml; a-b = highest concentration with growth - lowest without growth
Rhizobium meliloti = assay: Inhibition zone assay (agar plate); format: cell-based; details: 50 nanomoles/well, 3 mm wells
Haemophilus influenzae = assay: Inhibition zone assay (agar plate); format: cell-based; details: 50 nanomoles/well, 3 mm wells
Pseudomonas syringae = assay: Inhibition zone assay (agar plate); format: cell-based; details: agar plate, 50 nanomoles/well, 3 mm wells
[2] = tested on: Escherichia coli (ATCC11775); assay: Inhibition zone assay (agar plate); format: cell-based; details: agar plate, 50 nanomoles/well, 3 mm wells
E. coli 23802 = assay: Minimal inhibitory concentration (liquid culture); details: inoculum 5000 CFU/ml; a-b = highest concentration with growth - lowest without growth
Campylobacter jejuni = assay: Inhibition zone assay (agar plate); format: cell-based; details: 50 nanomoles/well, 3 mm wells
Morganella morganii = assay: Inhibition zone assay (agar plate); format: cell-based; details: 50 nanomoles/well, 3 mm wells
[3] = tested on: Escherichia coli (11775 Apid R); format: cell-based; details: agar plate, 50 nanomoles/well, 3 mm wells
Legionella pneumophila = format: cell-based; details: agar plate, 50 nanomoles/well, 3 mm wells
[4] = tested on: Acinetobacter calcoaceticus; assay: Inhibition zone assay (agar plate); format: cell-based; details: agar plate, 50 nanomoles/well, 3 mm wells
Salmonella typhi = format: cell-based; details: agar plate, 50 nanomoles/well, 3 mm wells

Compound	inhibition zone diameter (number of plus signs) (Enterobacter cloacae)	minimal inhibitory concentration (MIC) (Y. enterocolitica) [µg/mL]	inhibition zone diameter (number of plus signs) (Erwinia amylovora)	minimal inhibitory concentration (MIC) (S. typhimurium) [µg/mL]	minimal inhibitory concentration (MIC) (E. coli 11775; inoculum 16 × 10^6 CFU/ml) [µg/mL]	minimal inhibitory concentration (MIC) (E. coli 11775; inoculum 1200 CFU/ml) [µg/mL]	inhibition zone diameter (number of plus signs) (Salmonella typhimurium)	minimal inhibitory concentration (MIC) (M. morganii) [µg/mL]	inhibition zone diameter (number of plus signs) (Francisella tularensis)	minimal inhibitory concentration (MIC) (A. calcoaceticus) [µg/mL]	inhibition zone diameter (number of plus signs) (Escherichia coli (K514))	inhibition zone diameter (number of plus signs) [1]	inhibition zone diameter (number of plus signs) (Klebsiella pneumoniae)	minimal inhibitory concentration (MIC) (E. coli Apid^R; inoculum 12 × 10^6 CFU/ml) [µg/mL]	minimal inhibitory concentration (MIC) (E. coli Apid^R; inoculum 1000 CFU/ml) [µg/mL]	minimal inhibitory concentration (MIC) (E. coli 25922) [µg/mL]	inhibition zone diameter (number of plus signs) (Haemophilus influenzae)	inhibition zone diameter (number of plus signs) (Pseudomonas syringae)	inhibition zone diameter (number of plus signs) [2]	minimal inhibitory concentration (MIC) (E. coli 23802) [µg/mL]	other results
NRPTYVPPPRPPHPRL [Ck P]	+++ ((+++) 10-14 mm)	1 to 5	+++ ((+++) 10-14 mm)	1 to 5	1 to 5	0.1 to 0.5	++++ ((++++) 15-19 mm)	> 40	++ ((++) 7-9 mm)	> 20	++ ((++) 7-9 mm)	++++ ((++++) 15-19 mm)	++ ((++) 7-9 mm)	> 40	> 40	0.5 to 1	++ ((++) 7-9 mm)	++++ ((++++) 15-19 mm)	+++ ((+++) 10-14 mm)	20 to 40	inhibition zone diameter (number of plus signs) (Yersinia enterocolitica): +++ ((+++) 10-14 mm); inhibition zone diameter (number of plus signs) (Rhizobium meliloti): +++++ ((+++++) 20 or more min)
CC(C)C[C@H](NC(=O)[C@H](CCCNC(=N)N)NC(=O)[C@@H]1CCCN1C(=O)[C@H](Cc1c[nH]cn1)NC(=O)[C@@H]1CCCN1C(=O)[C@@H]1CCCN1C(=O)[C@H](CCCNC(=N)N)NC(=O)[C@@H]1CCCN1C(=O)[C@H](C)NC(=O)[C@@H]1CCCN1C(=O)[C@@H](NC(=O)[C@H](Cc1ccc(O)cc1)NC(=O)[C@@H](NC(=O)[C@@H]1CCCN1C(=O)[C@H](CCCNC(=N)N)NC(=O)[C@@H](N)CC(N)=O)[C@@H](C)O)C(C)C)C(=O)O [Ck A, Asn--Arg--Pro--Thr--Tyr--Val--Pro--Ala--Pro--Arg--Pro--Pro--His--Pro--Arg--Leu] (H-NRPTYVPAPRPPHPRL-OH)	++ ((++) 7-9 mm)	1 to 5	+++ ((+++) 10-14 mm)	1 to 5	1 to 5	0.1 to 0.5	+++ ((+++) 10-14 mm)	20 to 40	+ ((+) 5-6 mm)	> 20	++ ((++) 7-9 mm)	++++ ((++++) 15-19 mm)	++ ((++) 7-9 mm)	> 40	> 40	1 to 5	++ ((++) 7-9 mm)	+++ ((+++) 10-14 mm)	+++ ((+++) 10-14 mm)	> 40	inhibition zone diameter (number of plus signs) (Yersinia enterocolitica): +++ ((+++) 10-14 mm); inhibition zone diameter (number of plus signs) (Rhizobium meliloti): ++++ ((++++) 15-19 mm)
CC[C@H](C)[C@H](NC(=O)[C@@H]1CCCN1C(=O)[C@H](C)NC(=O)[C@@H]1CCCN1C(=O)[C@H](CCCNC(=N)N)NC(=O)[C@@H]1CCCN1C(=O)[C@H](CCCNC(=N)N)NC(=O)[C@H](CC(N)=O)NC(=O)[C@@H]1CCCN1C(=O)[C@H](CCCCN)NC(=O)CN)C(=O)N[C@@H](CCC(N)=O)C(=O)N1CCC[C@H]1C(=O)N[C@@H](CCCNC(=N)N)C(=O)N1CCC[C@H]1C(=O)N1CCC[C@H]1C(=O)N[C@@H](Cc1c[nH]cn1)C(=O)N1CCC[C@H]1C(=O)N[C@@H](CCCNC(=N)N)C(=O)N[C@@H](CC(C)C)C(=O)O [Cd 1+, Gly--Lys--Pro--Asn--Arg--Pro--Arg--Pro--Ala--Pro--Ile--Gln--Pro--Arg--Pro--Pro--His--Pro--Arg--Leu] (H-GKPNRPRPAPIQPRPPHPRL-OH)	+++ ((+++) 10-14 mm)	20 to 40	++ ((++) 7-9 mm)	10 to 20	> 20	10 to 20	++ ((++) 7-9 mm)	10 to 20		> 20	++ ((++) 7-9 mm)	++++ ((++++) 15-19 mm)	++ ((++) 7-9 mm)			10 to 20	++++ ((++++) 15-19 mm)	++++ ((++++) 15-19 mm)	++ ((++) 7-9 mm)	10 to 20	inhibition zone diameter (number of plus signs) (Campylobacter jejuni): +++ ((+++) 10-14 mm); inhibition zone diameter (number of plus signs) (Morganella morganii): ++ ((++) 7-9 mm); inhibition zone diameter (number of plus signs) [3]: ++ ((++) 7-9 mm); inhibition zone diameter (number of plus signs) (Legionella pneumophila): ++ ((++) 7-9 mm); inhibition zone diameter (number of plus signs) (Rhizobium meliloti): ++++ ((++++) 15-19 mm); inhibition zone diameter (number of plus signs) [4]: ++ ((++) 7-9 mm)
CC(C)C[C@H](NC(=O)[C@H](CCCNC(=N)N)NC(=O)[C@@H]1CCCN1C(=O)[C@H](Cc1c[nH]cn1)NC(=O)[C@@H]1CCCN1C(=O)[C@@H]1CCCN1C(=O)[C@H](CCCNC(=N)N)NC(=O)[C@@H]1CCCN1C(=O)[C@@H]1CCCN1C(=O)[C@@H](NC(=O)[C@H](CCC(N)=O)NC(=O)[C@H](CCC(N)=O)NC(=O)[C@@H]1CCCN1C(=O)[C@H](CCCNC(=N)N)NC(=O)[C@@H]1CCCN1C(=O)[C@H](CCCCN)NC(=O)[C@H](CC(N)=O)NC(=O)[C@@H](N)CO)C(C)C)C(=O)O [Yj +S, Ser--Asn--Lys--Pro--Arg--Pro--Gln--Gln--Val--Pro--Pro--Arg--Pro--Pro--His--Pro--Arg--Leu] (H-SNKPRPQQVPPRPPHPRL-OH)	++ ((++) 7-9 mm)	1 to 5	+++ ((+++) 10-14 mm)	0.1 to 0.5	0.1 to 0.5	0.1 to 0.5	+++ ((+++) 10-14 mm)	0.5 to 1	++ ((++) 7-9 mm)	2 to 10	++ ((++) 7-9 mm)		++ ((++) 7-9 mm)	10 to 20	1 to 5	0.1 to 0.5	+++ ((+++) 10-14 mm)	++++ ((++++) 15-19 mm)	+++ ((+++) 10-14 mm)	0.5 to 1	inhibition zone diameter (number of plus signs) (Salmonella typhi): ++ ((++) 7-9 mm); inhibition zone diameter (number of plus signs) [4]: + ((+) 5-6 mm)
